Laboratory results as given in patent US10874675B2, “Pteridine dione monocarboxylate transporter inhibitors” (The Scripps Research Institute, priority 2015, dated 2020).

Tested on: Raji (Burkitt's) lymphoma cells
Assay: MTT assay for 4-day viability of Raji (Burkitt's) lymphoma cells
Format: cell-based
Conditions: Homo sapiens, 96 h, Raji cells (highly express MCT1), estimated values, read-out: approximate potency (EC50 nM)
Description: Specific Examples of compounds of the invention, with estimated EC50 values determined using an MTT assay for 4-day viability of Raji (Burkitt's) lymphoma cells, a cell line known to highly express MCT1 and to be sensitive to small molecule MCT inhibitors,^4 are shown in Table 3. Assay protocols follow those described in the literature.^4 Other assays that are not described here but that are standard in the field, such as an assay for competitive inhibition of transport of radiolabeled lactic acid, an MCT substrate, may also be useful in establishing mechanism of action of these compounds.

| SMILES | EC50 |
| --- | --- |
| CC(C)Cn1c(=O)n(C)c(=O)c2nc(CCCCCO)c(COc3cccnc3)nc21 [Example 31, 6-(5-hydroxypentyl)-1-isobutyl-3-methyl-7-((pyridin-3-yloxy)methyl)pteridine-2,4(1H,3H)-dione] | ≤ 1000 nM |
| CC(C)Cn1c(=O)n(C)c(=O)c2nc(CCCCCO)c(COc3ccc(N)c4ccccc34)nc21 [Example 9, 7-(((4-aminonaphthalen-1-yl)oxy)methyl)-6-(5-hydroxypentyl)-1-isobutyl-3-methylpteridine-2,4(1H,3H)-dione] | < 50 nM |
| CC(C)Cn1c(=O)n(C)c(=O)c2nc(CCCCCO)c(COc3c(Br)cc(Br)c4cnccc34)nc21 [Example 29, 7-(((6,8-dibromoisoquinolin-5-yl)oxy)methyl)-6-(5-hydroxypentyl)-1-isobutyl-3-methylpteridine-2,4(1H,3H)-dione] | ≤ 1000 nM |
| CC(C)Cn1c(=O)n(C)c(=O)c2nc(CCCCCO)c(COc3cccc4nccnc34)nc21 [Example 30, 6-(5-hydroxypentyl)-1-isobutyl-3-methyl-7-((quinoxalin-5-yloxy)methyl)pteridine-2,4(1H,3H)-dione] | ≤ 1000 nM |
| CC(C)Cn1c(=O)n(C)c(=O)c2nc(CCCCCO)c(COc3cccc4ccccc34)nc21 [Example 2, 6-(5-hydroxypentyl)-1-isobutyl-3-methyl-7-((naphthalen-1-yloxy)methyl)pteridine-2,4(1H,3H)-dione] | < 50 nM |
| CC(C)Cn1c(=O)n(C)c(=O)c2nc(CCCCCO)c(COc3cc(F)ccc3Br)nc21 [Example 24, 7-((2-bromo-5-fluorophenoxy)methyl)-6-(5-hydroxypentyl)-1-isobutyl-3-methylpteridine-2,4(1H,3H)-dione] | ≤ 250 nM |
| CC(C)Cn1c(=O)n(C)c(=O)c2nc(CCCCCO)c(COc3ccc(Br)cc3Br)nc21 [Example 19, 7-((2,4-dibromophenoxy)methyl)-6-(5-hydroxypentyl)-1-isobutyl-3-methylpteridine-2,4(1H,3H)-dione] | ≤ 250 nM |
| CC(C)Cn1c(=O)n(C)c(=O)c2nc(CCCCCO)c(COc3cccc([N+](=O)[O-])c3)nc21 [Example 32, 6-(5-hydroxypentyl)-1-isobutyl-3-methyl-7-((3-nitrophenoxy)methyl)pteridine-2,4(1H,3H)-dione] | ≤ 1000 nM |
| CC(C)Cn1c(=O)n(C)c(=O)c2nc(CCCCCO)c(COc3ccc4ccccc4c3)nc21 [Example 10] | < 50 nM |
| CC(C)Cn1c(=O)n(C)c(=O)c2nc(CCCCCO)c(COc3ccccc3Br)nc21 [Example 11, 7-((2-bromophenoxy)methyl)-6-(5-hydroxypentyl)-1-isobutyl-3-methylpteridine-2,4(1H,3H)-dione] | < 50 nM |
| CC(C)Cn1c(=O)n(C)c(=O)c2nc(CCCCCO)c(COc3ccc4ncccc4c3)nc21 [Example 18, 6-(5-hydroxypentyl)-1-isobutyl-3-methyl-7-((quinolin-6-yloxy)methyl)pteridine-2,4(1H,3H)-dione] | ≤ 100 nM |
| CC(C)Cn1c(=O)n(C)c(=O)c2nc(CCCCCO)c(COc3ccccc3C#N)nc21 [Example 34, 2-((6-(5-hydroxypentyl)-1-isobutyl-3-methyl-2,4-dioxo-1,2,3,4-tetrahydropteridin-7-yl)methoxy)benzonitrile] | ≥ 2000 nM |
| CC(C)Cn1c(=O)n(C)c(=O)c2nc(CCCCCO)c(COc3ccc([N+](=O)[O-])c4ccccc34)nc21 [Example 8, 6-(5-hydroxypentyl)-1-isobutyl-3-methyl-7-(((4-nitronaphthalen-1-yl)oxy)methyl)pteridine-2,4(1H,3H)-dione] | 300 nM |
| CC(C)Cn1c(=O)n(C)c(=O)c2nc(CCCCCO)c(COc3cccc4ccncc34)nc21 [Example 25, 6-(5-hydroxypentyl)-1-isobutyl-7-((isoquinolin-8-yloxy)methyl)-3-methylpteridine-2,4(1H,3H)-dione] | ≤ 250 nM |
| CC(C)Cn1c(=O)n(C)c(=O)c2nc(CCCCCO)c(COc3ccccc3-c3ccccc3)nc21 [Example 23, 7-(([1,1′-biphenyl]-2-yloxy)methyl)-6-(5-hydroxypentyl)-1-isobutyl-3-methylpteridine-2,4(1H,3H)-dione] | ≤ 250 nM |
| CC(C)Cn1c(=O)n(C)c(=O)c2nc(CCCCCO)c(COc3cc4ccccc4cn3)nc21 [Example 27, 6-(5-hydroxypentyl)-1-isobutyl-7-((isoquinolin-3-yloxy)methyl)-3-methylpteridine-2,4(1H,3H)-dione] | ≤ 500 nM |

| SMILES | EC50 |
| --- | --- |
| CC(C)Cn1c(=O)n(C)c(=O)c2nc(CCCCCO)c(COc3cccc4cccnc34)nc21 [Example 26, 6-(5-hydroxypentyl)-1-isobutyl-3-methyl-7-((quinolin-8-yloxy)methyl)pteridine-2,4(1H,3H)-dione] | ≤ 500 nM |
| CC(C)Cn1c(=O)n(C)c(=O)c2nc(CCCCCO)c(COc3ccccc3)nc21 [Example 15, 6-(5-hydroxypentyl)-1-isobutyl-3-methyl-7-(phenoxymethyl)pteridine-2,4(1H,3H)-dione] | ≤ 100 nM |
| CC(C)Cn1c(=O)n(C)c(=O)c2nc(CCCCCO)c(COc3ccccc3Cl)nc21 [Example 13, 7-((2-chlorophenoxy)methyl)-6-(5-hydroxypentyl)-1-isobutyl-3-methylpteridine-2,4(1H,3H)-dione] | < 50 nM |
| CC(C)Cn1c(=O)n(C)c(=O)c2nc(CCCCCO)c(COc3ccc(Cl)cc3Br)nc21 [Example 21, 7-((2-bromo-4-chlorophenoxy)methyl)-6-(5-hydroxypentyl)-1-isobutyl-3-methylpteridine-2,4(1H,3H)-dione] | ≤ 250 nM |
| CC(C)Cn1c(=O)n(C)c(=O)c2nc(CCCCCO)c(COc3ccccc3C(F)(F)F)nc21 [Example 7, 6-(5-hydroxypentyl)-1-isobutyl-3-methyl-7-((2-(trifluoromethyl)phenoxy)methyl)pteridine-2,4(1H,3H)-dione] | < 50 nM |
| CC(C)Cn1c(=O)n(C)c(=O)c2nc(CCCCCO)c(COc3cncc4ccccc34)nc21 [Example 5] | < 50 nM |
| CC(C)Cn1c(=O)n(C)c(=O)c2nc(CCCCCO)c(COc3ccncc3)nc21 [Example 28, 6-(5-hydroxypentyl)-1-isobutyl-3-methyl-7-((pyridin-4-yloxy)methyl)pteridine-2,4(1H,3H)-dione] | ≤ 1000 nM |
| CC(C)Cn1c(=O)n(C)c(=O)c2nc(CCCCCO)c(COc3cccc(C(F)(F)F)c3)nc21 [Example 16, 6-(5-hydroxypentyl)-1-isobutyl-3-methyl-7-((3-(trifluoromethyl)phenoxy)methyl)pteridine-2,4(1H,3H)-dione] | ≤ 100 nM |
| CC(C)Cn1c(=O)n(C)c(=O)c2nc(CCCCCO)c(COc3cccc(N)c3)nc21 [Example 33, 7-((3-aminophenoxy)methyl)-6-(5-hydroxypentyl)-1-isobutyl-3-methylpteridine-2,4(1H,3H)-dione] | ≤ 100 nM |
| CC(C)Cn1c(=O)n(C)c(=O)c2nc(CCCCCO)c(COc3cccc4[nH]ccc34)nc21 [Example 6, 7-(((1H-indol-4-yl)oxy)methyl)-6-(5-hydroxypentyl)-1-isobutyl-3-methylpteridine-2,4(1H,3H)-dione] | < 50 nM |
| CC(C)Cn1c(=O)n(C)c(=O)c2nc(CCCCCO)c(COc3ccccc3F)nc21 [Example 17, 7-((2-fluorophenoxy)methyl)-6-(5-hydroxypentyl)-1-isobutyl-3-methylpteridine-2,4(1H,3H)-dione] | ≤ 100 nM |
| CC(C)Cn1c(=O)n(C)c(=O)c2nc(CCCCCO)c(COc3ccc(C(F)(F)F)cc3)nc21 [Example 22, 6-(5-hydroxypentyl)-1-isobutyl-3-methyl-7-((4-(trifluoromethyl)phenoxy)methyl)pteridine-2,4(1H,3H)-dione] | ≤ 250 nM |
| CC(C)Cn1c(=O)n(C)c(=O)c2nc(CCCCCO)c(COc3ccnc4ccccc34)nc21 [Example 12, 6-(5-hydroxypentyl)-1-isobutyl-3-methyl-7-((quinolin-4-yloxy)methyl)pteridine-2,4(1H,3H)-dione] | < 50 nM |
| CC(C)Cn1c(=O)n(C)c(=O)c2nc(CCCCCO)c(COc3ccc4cccnc4c3)nc21 [Example 20, 6-(5-hydroxypentyl)-1-isobutyl-3-methyl-7-((quinolin-7-yloxy)methyl)pteridine-2,4(1H,3H)-dione] | ≤ 250 nM |
| CC(C)Cn1c(=O)n(C)c(=O)c2nc(CCCCCO)c(COc3ccc(-c4ccccc4)cc3)nc21 [Example 14, 7-(([1,1′-biphenyl]-4-yloxy)methyl)-6-(5-hydroxypentyl)-1-isobutyl-3-methylpteridine-2,4(1H,3H)-dione] | ≤ 100 nM |
| CC(C)Cn1c(=O)n(C)c(=O)c2nc(CCc3ccccc3CO)c(COc3cccc4ccccc34)nc21 [Example 35, 6-(2-(hydroxymethyl)phenethyl)-1-isobutyl-3-methyl-7-((naphthalen-1-yloxy)methyl)pteridine-2,4(1H,3H)-dione] | ≤ 100 nM |
